Data published in the supplement of paper PMC12350171.

Tests used:
[1] = tested on: Com21 synthetic gut community; assay: community biomass OD578 after 24 h drug treatment relative to untreated (fraction of untreated control); higher = more community growth; conditions: community: Com21 (Com20 + E. coli ED1a)
Description: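 Com21 (Com20 plus E. coli ED1a) was treated with drug for 24 h under anaerobic conditions in mGAM. Community OD578 was then measured and normalised to untreated Com21; mean of 3 biological replicates.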

Escherichia coli ED1a = assay: IC25 growth inhibition; higher = less potent
Summary of the method: (§1)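 Overnight monocultures grown in mGAM were moved into pre-reduced plates containing twofold drug dilutions, at a starting OD578 of 0.01 with 1% DMSO (or water). Plates were kept anaerobic and read hourly at OD578 in a plate reader, with at least three biological replicates. For each concentration, the median area under the growth curve was made monotonic, and IC25 was the lowest concentration whose median fell below a cutoff, reported as a tested interval. That cutoff was 0.75.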

Ruminococcus gnavus = assay: IC25 growth inhibition; higher = less potent
Summary of the method: as §1

Clostridium bolteae = assay: IC25 growth inhibition; higher = less potent
Summary of the method: as §1

Bacteroides vulgatus = assay: IC25 growth inhibition; higher = less potent
Summary of the method: as §1

Bacteroides uniformis = assay: IC25 growth inhibition; higher = less potent
Summary of the method: as §1

Vibrio cholerae = assay: IC25 growth inhibition; higher = less potent
Summary of the method: as §1

[2] = tested on: Clostridium saccharolyticum; assay: IC25 growth inhibition; higher = less potent
Summary of the method: as §1

Eubacterium rectale = assay: IC25 growth inhibition; higher = less potent
Summary of the method: as §1

[3] = tested on: Bacteroides thetaiotaomicron; assay: IC25 growth inhibition; higher = less potent
Summary of the method: as §1

[4] = tested on: Yersinia enterocolitica WA-314; assay: IC25 growth inhibition; higher = less potent
Summary of the method: as §1

[5] = tested on: Yersinia pseudotuberculosis; assay: IC25 growth inhibition; higher = less potent
Summary of the method: as §1

Shigella flexneri = assay: IC25 growth inhibition; higher = less potent
Summary of the method: as §1

Clostridium perfringens = assay: IC25 growth inhibition; higher = less potent
Summary of the method: as §1

Collinsella aerofaciens = assay: IC25 growth inhibition; higher = less potent
Summary of the method: as §1

Parabacteroides merdae = assay: IC25 growth inhibition; higher = less potent
Summary of the method: as §1

[6] = tested on: Salmonella enterica typhimurium; assay: IC25 growth inhibition; higher = less potent
Summary of the method: as §1

[7] = tested on: Fusobacterium nucleatum subsp. Nucleatum; assay: IC25 growth inhibition; higher = less potent
Summary of the method: as §1

Streptococcus salivarius = assay: IC25 growth inhibition; higher = less potent
Summary of the method: as §1

Coprococcus comes = assay: IC25 growth inhibition; higher = less potent
Summary of the method: as §1

Dorea formicigenerans = assay: IC25 growth inhibition; higher = less potent
Summary of the method: as §1

Roseburia intestinalis = assay: IC25 growth inhibition; higher = less potent
Summary of the method: as §1

Clostridium ramosum = assay: IC25 growth inhibition; higher = less potent
Summary of the method: as §1

Bacteroides fragilis NT = assay: IC25 growth inhibition; higher = less potent
Summary of the method: as §1

[8] = tested on: Streptococcus parasanguinis; assay: IC25 growth inhibition; higher = less potent
Summary of the method: as §1

[9] = drug pretreatment concentration 10 µM
[10] = drug pretreatment concentration 20 µM
[11] = drug pretreatment concentration 40 µM
[12] = drug pretreatment concentration 80 µM
[13] = drug pretreatment concentration 160 µM
[14] = drug pretreatment concentration 5 µM
[15] = drug pretreatment concentration 2.5 µM
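Throughout, for IC25 growth inhibition: lowest concentration where monotonic median growth AUC falls below 0.75 of drug-free control.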

Compound | community biomass OD578 [1, 9] | community biomass OD578 [1, 10] | community biomass OD578 [1, 11] | community biomass OD578 [1, 12] | community biomass OD578 [1, 13] | IC25 growth inhibition (Escherichia coli ED1a) | IC25 growth inhibition (Ruminococcus gnavus) | IC25 growth inhibition (Clostridium bolteae) | IC25 growth inhibition (Bacteroides vulgatus) | IC25 growth inhibition (Bacteroides uniformis) | IC25 growth inhibition (Vibrio cholerae) | IC25 growth inhibition [2] | IC25 growth inhibition (Eubacterium rectale) | IC25 growth inhibition [3] | IC25 growth inhibition [4] | IC25 growth inhibition [5] | IC25 growth inhibition (Shigella flexneri) | IC25 growth inhibition (Clostridium perfringens) | IC25 growth inhibition (Collinsella aerofaciens) | IC25 growth inhibition (Parabacteroides merdae) | IC25 growth inhibition [6] | IC25 growth inhibition [7] | IC25 growth inhibition (Streptococcus salivarius) | IC25 growth inhibition (Coprococcus comes) | IC25 growth inhibition (Dorea formicigenerans) | IC25 growth inhibition (Roseburia intestinalis) | IC25 growth inhibition (Clostridium ramosum) | IC25 growth inhibition (Bacteroides fragilis NT) | IC25 growth inhibition [8] | community biomass OD578 [1, 14] | community biomass OD578 [1, 15]
CC[C@H]1OC(=O)[C@H](C)[C@@H](O[C@H]2C[C@@](C)(OC)[C@@H](O)[C@H](C)O2)[C@H](C)[C@@H](O[C@@H]2O[C@H](C)C[C@H](N(C)C)[C@H]2O)[C@](C)(O)C[C@@H](C)C(=O)[C@H](C)[C@@H](O)[C@]1(C)O [Erythromycin] | 0.734 | 0.696 | 0.608 | 0.496 | 0.409 | ≤ 20 µM | < 1.25 µM | ≤ 2.5 µM | < 1.25 µM | < 1.25 µM | < 1.25 µM | < 1.25 µM | < 1.25 µM | < 1.25 µM | ≤ 20 µM | ≤ 40 µM | ≤ 10 µM | < 1.25 µM | < 1.25 µM | < 1.25 µM | ≤ 40 µM | ≤ 5 µM | < 1.25 µM | < 1.25 µM | < 1.25 µM | < 1.25 µM | < 1.25 µM | < 1.25 µM | < 1.25 µM | – | –
C#C[C@]1(O)CC[C@H]2[C@@H]3CCc4cc(O)ccc4[C@H]3CC[C@@]21C [Ethinylestradiol] | 0.986 | 0.99 | 0.976 | 0.779 | – | > 80 µM | > 80 µM | > 80 µM | > 80 µM | > 80 µM | ≤ 40 µM | > 80 µM | > 80 µM | > 80 µM | > 80 µM | > 80 µM | > 80 µM | > 80 µM | > 80 µM | > 80 µM | > 80 µM | > 80 µM | > 80 µM | > 80 µM | > 80 µM | > 80 µM | > 80 µM | > 80 µM | > 80 µM | 1.01 | –
CCN(CC)C(C)CN1c2ccccc2Sc2ccccc21 (configuration not stated) [Ethopropazine] | 0.981 | 0.995 | 0.997 | 0.992 | 0.97 | > 160 µM | > 80 µM | > 80 µM | < 1.25 µM | ≤ 10 µM | > 80 µM | > 80 µM | > 80 µM | ≤ 2.5 µM | > 80 µM | > 80 µM | > 80 µM | > 80 µM | > 80 µM | < 1.25 µM | > 80 µM | > 80 µM | > 80 µM | > 80 µM | > 80 µM | ≤ 80 µM | > 80 µM | ≤ 10 µM | > 80 µM | – | –
O=c1[nH]c(=O)n([C@H]2C[C@H](O)[C@@H](CO)O2)cc1F [Floxuridine] | 0.993 | 0.907 | 0.886 | 0.882 | 0.88 | ≤ 10 µM | ≤ 2.5 µM | ≤ 80 µM | < 1.25 µM | < 1.25 µM | ≤ 10 µM | ≤ 160 µM | > 160 µM | < 1.25 µM | ≤ 20 µM | ≤ 5 µM | ≤ 20 µM | < 1.25 µM | > 160 µM | > 160 µM | ≤ 40 µM | ≤ 80 µM | < 1.25 µM | > 160 µM | > 160 µM | > 160 µM | < 1.25 µM | < 1.25 µM | < 1.25 µM | – | –
OC(Cn1cncn1)(Cn1cncn1)c1ccc(F)cc1F [Fluconazole] | 0.936 | 1.02 | 0.993 | 0.99 | 1.04 | > 160 µM | > 160 µM | > 160 µM | > 160 µM | > 160 µM | > 160 µM | > 160 µM | ≤ 40 µM | > 160 µM | > 160 µM | > 160 µM | > 160 µM | > 160 µM | ≤ 160 µM | > 160 µM | > 160 µM | > 160 µM | > 160 µM | > 160 µM | > 160 µM | > 160 µM | > 160 µM | > 160 µM | > 160 µM | – | –
CC(=O)N1CCN(c2ccc(OCC3COC(Cn4ccnc4)(c4ccc(Cl)cc4Cl)O3)cc2)CC1 (configuration not stated) [Ketoconazole] | 0.941 | 0.979 | 0.953 | 0.928 | 0.731 | > 160 µM | ≤ 80 µM | > 160 µM | ≤ 40 µM | ≤ 40 µM | > 160 µM | ≤ 80 µM | ≤ 40 µM | ≤ 80 µM | > 80 µM | > 160 µM | > 80 µM | ≤ 80 µM | ≤ 80 µM | ≤ 40 µM | > 160 µM | ≤ 160 µM | ≤ 80 µM | ≤ 40 µM | ≤ 40 µM | ≤ 80 µM | > 160 µM | ≤ 80 µM | > 80 µM | – | –
N[C@@H](Cc1cc(I)c(Oc2cc(I)c(O)c(I)c2)c(I)c1)C(=O)O [L-Thyroxin] | 1.01 | 1.03 | 1.02 | – | – | > 40 µM | > 160 µM | > 160 µM | > 160 µM | > 160 µM | > 160 µM | > 160 µM | > 160 µM | > 160 µM | > 160 µM | > 160 µM | > 160 µM | > 160 µM | > 160 µM | > 160 µM | > 160 µM | > 160 µM | > 160 µM | > 160 µM | ≤ 80 µM | > 160 µM | > 160 µM | > 160 µM | > 160 µM | 0.999 | 0.996
CCOC(=O)C1=C(C)NC(C)=C(C(=O)OCC)C1c1ccccc1/C=C/C(=O)OC(C)(C)C [Lacidipine] | 1.04 | 1 | 0.963 | – | – | > 40 µM | > 40 µM | > 20 µM | > 40 µM | > 40 µM | > 40 µM | > 20 µM | > 40 µM | > 20 µM | > 20 µM | > 20 µM | > 40 µM | ≤ 40 µM | > 20 µM | > 40 µM | > 20 µM | > 40 µM | > 40 µM | > 20 µM | > 40 µM | ≤ 20 µM | > 40 µM | > 40 µM | > 20 µM | 1.01 | 1.01
